Results as given in patent publication US20210277352A1, “ENRICHMENT SUPPLEMENT FOR ANTIMICROBAL MATRICES” (priority 2018, published 2021).
Read-outs that look alike come from different tables or passages of the source.

How the values were obtained:
[1] = test system: Listeria innocua (ATCC 33090); assay type: cell-based
[2] = test system: Listeria innocua (ATCC 33090); conditions: 25 g food matrix, 100 mL Demi Fraser media, inoculation 1.4 cfu/sample, 35° C. 24 hours, mean of two replicates
Experimental: (§1) Individual inoculums were prepared by serially diluting each culture sample with Butterfield's Buffer (3M Company, St. Paul, Minn.). To determine the cell concentration (cfu/sample), a 1 mL aliquot of diluted sample was plated onto a […] Aerobic Count Plate (3M Company, St. Paul, Minn.), incubated, and counted according to the manufacturer's instructions. The counts (cfu) from the plates were used to calculate the final dilution required to achieve the targeted inoculum concentration.
(§2) The inoculated sample was added to a WHIRL-PAK sterile sampling bag that contained 100 mL of Demi Fraser enrichment media. […] The bag was closed and the sample was mixed for 30 seconds followed by incubation at 35° C. for 24 hours. A 10 mL aliquot of the media was removed and serially diluted with fresh Demi Fraser media. A 100 microliter sample from the final dilution was plated onto a Modified Oxford (MOX) agar plate according to the manufacturer's instructions and the plate was incubated at 37° C. for 24 hours. Colonies (cfu) that formed were counted by visual inspection. The total colony count post enrichment was calculated by adjusting the observed plate count based on the number and volume of the dilutions.

[3] = test system: Salmonella typhimurium (ATCC 14028); conditions: 25 g food matrix, 100 mL BPW media, inoculation 10 cfu/sample, 35° C. 24 hours, mean of two replicates
Experimental: as §1
as §2, with “of Buffered Peptone Water” for “of Demi Fraser”, “with” for “with fresh”, “Fraser media (3M Company, St. Paul, Minn.).” for “Fraser media.”, “onto an EZ-CHROM Salmonella Plus” for “onto a Modified Oxford (MOX)”, “dilutions. The recovery of Salmonella typhimurium (cfu/mL) after enrichment is reported in Table 1 as the mean value of two replicates.” for “dilutions.”

[4] = salt in enrichment media 330 micromolar, 50 g food matrix, 200 mL Demi Fraser media, inoculation 3.7 cfu/sample, mean of two replicates
[5] = salt in enrichment media 331 micromolar, 50 g food matrix, 200 mL Demi Fraser media, inoculation 3.7 cfu/sample, mean of two replicates

Compound: [Cl-].[Cl-].[Zn+2] [ZnCl2, zinc chloride]
- Recovery after Enrichment ([1]; ZnCl2 45 mg/L, 50 g food matrix, 200 mL Demi Fraser media, inoculation 3.7 cfu/sample, 35° C. 24 hours, mean of two replicates): 1 × 10^6 cfu/mL
- Recovery after Enrichment [1, 4]: 1 × 10^6 cfu/mL

Compound: ferric ammonium citrate [Example C6H11FeNO7]
- Recovery after Enrichment [1, 4]: 1 × 10^4 cfu/mL

Compound: O=S(=O)([O-])[O-].[Mg+2] [MgSO4, magnesium sulfate]
- Recovery after Enrichment ([1]; salt in enrichment media 332 micromolar, 50 g food matrix, 200 mL Demi Fraser media, inoculation 3.7 cfu/sample, mean of two replicates): 1 × 10^5 cfu/mL

Compound: O.O.O.O.O.O.O.O=S(=O)([O-])[O-].[Fe+2] [FeSO4, ferrous sulfate heptahydrate]
- Recovery after Enrichment ([2]; FeSO4 50 mg/L): 1 × 10^5 cfu/mL
- Recovery after Enrichment ([2]; FeSO4 500 mg/L): 1 × 10^3 cfu/mL
- Recovery after Enrichment ([2]; FeSO4 2000 mg/L): 1 × 10^3 cfu/mL
- Recovery after Enrichment ([3]; FeSO4 50 mg/L): 1 × 10^6 cfu/mL
- Recovery after Enrichment ([3]; FeSO4 500 mg/L): 1 × 10^6 cfu/mL
- Recovery after Enrichment ([3]; FeSO4 2000 mg/L): 1 × 10^7 cfu/mL

Compound: [Ca+2].[Cl-].[Cl-] [CaCl2, calcium chloride]
- Recovery after Enrichment [1]: 1 × 10^4 cfu/mL

Compound: [Ba+2].[Cl-].[Cl-] [BaCl2, barium chloride]
- Recovery after Enrichment [1, 5]: 1 × 10^4 cfu/mL

Compound: ferric citrate [Example C6H5FeO7]
- Recovery after Enrichment [1, 5]: 1 × 10^4 cfu/mL
